From the NIST ThermoML archive (doi:10.1021/je060271a)

Settings: 303.16 K, Liquid, Vibrating tube method

CCCC(=O)OCC(COC(=O)CCC)(COC(=O)CCC)COC(=O)CCC [pentaerythritol tetrabutyrate]
Settings | mass density [kg/m3]
218.9 kPa | 1042.3
232.4 kPa | 1042.3
246.9 kPa | 1042.3
262 kPa | 1042.5
324.9 kPa | 1042.3
472.3 kPa | 1042.4
544.7 kPa | 1042.5
563.5 kPa | 1042.5
587.1 kPa | 1042.5
607.3 kPa | 1042.4
629 kPa | 1042.6
656.4 kPa | 1042.6
678.3 kPa | 1042.6
696.6 kPa | 1042.6
718.1 kPa | 1042.7
737.2 kPa | 1042.6
757 kPa | 1042.6
776.8 kPa | 1042.6
796 kPa | 1042.7
818.2 kPa | 1042.7
836.3 kPa | 1042.7
853.6 kPa | 1042.7
873.1 kPa | 1042.8
890.5 kPa | 1042.7
907.8 kPa | 1042.7
929.5 kPa | 1042.8
947.9 kPa | 1042.7
966.4 kPa | 1042.8
985.3 kPa | 1042.9
1007.9 kPa | 1042.8
1026.6 kPa | 1042.8
1044.5 kPa | 1042.8
1062.2 kPa | 1042.9
1083.2 kPa | 1043
1101 kPa | 1042.8
1119.2 kPa | 1042.9
1141.3 kPa | 1042.9
1160.5 kPa | 1042.9
1180.3 kPa | 1042.9
1203.2 kPa | 1042.8
1223.6 kPa | 1042.8
1243.7 kPa | 1043
1290.1 kPa | 1043
1358.8 kPa | 1043.1
1379.7 kPa | 1043
1401.5 kPa | 1043
1428.1 kPa | 1043.1
1450.3 kPa | 1043.1
1473.3 kPa | 1043.1
1501.7 kPa | 1043.2
1526.2 kPa | 1043.1
1550.9 kPa | 1043.1
1583.5 kPa | 1043.2
1604.5 kPa | 1043.2
1630.2 kPa | 1043.2
1662.3 kPa | 1043.2
1689.4 kPa | 1043.3
1717.5 kPa | 1043.3
1751.5 kPa | 1043.3
1780.2 kPa | 1043.3
1810 kPa | 1043.3
1846.1 kPa | 1043.4
1877 kPa | 1043.3
1908.8 kPa | 1043.5
1942.4 kPa | 1043.5
1983.9 kPa | 1043.5
2011.5 kPa | 1043.6
2053.9 kPa | 1043.4
2086.5 kPa | 1043.6
2109.2 kPa | 1043.5
2134.7 kPa | 1043.5
2155.2 kPa | 1043.4
2176 kPa | 1043.6
2200.7 kPa | 1043.6
2220.8 kPa | 1043.6
2241.1 kPa | 1043.6
2266.1 kPa | 1043.6
2286.5 kPa | 1043.6
2308 kPa | 1043.7
2333 kPa | 1043.7
2354.7 kPa | 1043.7
2376.6 kPa | 1043.7
2398.4 kPa | 1043.7
2422.9 kPa | 1043.8
2443.3 kPa | 1043.9
2464.3 kPa | 1043.6
2488.8 kPa | 1043.8
2509.4 kPa | 1043.8
2530.2 kPa | 1043.8
2554.7 kPa | 1043.7
2576.2 kPa | 1043.9
2597.2 kPa | 1043.9
2618.2 kPa | 1043.9
2643 kPa | 1043.9
2663.8 kPa | 1044
2685.1 kPa | 1043.9
2711.1 kPa | 1044
2732.8 kPa | 1044
2754.8 kPa | 1044
2781 kPa | 1043.9
2802.9 kPa | 1044
2824.7 kPa | 1044
2874.3 kPa | 1044.1
2897.5 kPa | 1044
2943.5 kPa | 1044.1
2971 kPa | 1044.1
2993.1 kPa | 1044.1
3014.9 kPa | 1044.1
3041.8 kPa | 1044.2
3063.6 kPa | 1044.2
3085.8 kPa | 1044.2
3108.7 kPa | 1044.3
3136.3 kPa | 1044.2
3159.3 kPa | 1044.2
3182.9 kPa | 1044.2
3207 kPa | 1044.3
3235.1 kPa | 1044.3
3258.3 kPa | 1044.2
3282.9 kPa | 1044.4
3311.7 kPa | 1044.3
3336.1 kPa | 1044.3
3361.2 kPa | 1044.5
3386.4 kPa | 1044.3
3416 kPa | 1044.5
3440.9 kPa | 1044.4
3466.4 kPa | 1044.4
3492.4 kPa | 1044.4
3523.8 kPa | 1044.5
3549.8 kPa | 1044.5
3576.6 kPa | 1044.5
3603.3 kPa | 1044.5
3635.4 kPa | 1044.6
3661.7 kPa | 1044.6
3688.4 kPa | 1044.7
3710.9 kPa | 1044.6
3733.8 kPa | 1044.6
3756.6 kPa | 1044.6
3784.2 kPa | 1044.7
3807.4 kPa | 1044.6
3831.5 kPa | 1044.7
3857.6 kPa | 1044.7
3881.3 kPa | 1044.7
3909.9 kPa | 1044.8
3931.4 kPa | 1044.7
3952.7 kPa | 1044.7
3974.1 kPa | 1044.8
